The values below come from US7915012B2, “Methods for screening for inhibitors of TRPV2 activation” (Korea University Industry and Academic Collaboration …, priority 2008, dated 2011).

Entries after “also recorded” stand apart in the source; their conditions may differ.

Test [1] addresses T1, mTRPM8 (Mus musculus, UniProt Q8R4D5).
T1 construct: expressed in transfected cells; host or cells: HEK293T (ATCC CRL-11268)
In words: Fluo-3 calcium imaging in TRPM8 transfected HEK293T cell line. It counts as cell-based. To be noted: 100 μM probenecid. Here is the method: (§1) HEK293T cell line (ATCC CRL-1 1268) was transiently transfected with plasmid DNA containing polynucleotide encoding […] (SEQ. ID. NO: 1), rTRPV2 (SEQ. ID. NO: 2), mTRPV3 (SEQ. ID. NO: 3), rTRPV4 (SEQ. ID. NO: 4), mTRPM8 (SEQ. ID. NO: 5) or mTRPA1 (SEQ. ID. NO: 6).
(§2) Particularly, the HEK293T cell line was transiently transfected with individual TRP channel plasmid (pcDNA3.1 containing polynucleotide encoding rTRPV1, rTRPV2, mTRPV3, rTRPV4, mTRPM8 or mTRPA1), and 600 ng/well of pCDNA3 (Invitrogen Corp., USA; containing green fluorescent protein (GFP) cDNA) using Fugene6 (Roche Diagnostics, USA) according to manufacturer's instruction. The transformed cells were cultured in DMEM/F12 containing 10% FBS and 1% penicillin/streptomycin in a CO2 incubator for 24 hours. The cells were replated onto poly-L-lysine-coated glass coverslips, followed by further culture for 10-24 hours.
(§3) Particularly, the transfected cell line of Example <3-1> and Example <3-2> was loaded with Fluo-3AM (5 μM; Sigma Aldrich, USA) in the bath solution (140 mM NaCl, 5 mM KCl, 2 mM CaCl2, 1 mM MgCl2, 10 mM HEPES; adjusted to pH 7.4 with NaOH) containing 0.02% pluronic acid (Invitrogen, USA) at 37° C. for 1 hour. […]

For test [2], the target named is T2, rTRPV4 (Rattus norvegicus, UniProt Q9ERZ8).
T2 construct: expressed in transfected cells; host or cells: HEK293T (ATCC CRL-11268)
Briefly: Fluo-3 calcium imaging in TRPV4 transfected HEK293T cell line. The format is cell-based. The note with it: 100 μM probenecid. As for the experimental part: as §1, §2, §3

Test [3] deals with T3, rTRPV1 (Rattus norvegicus, UniProt O35433).
T3 construct: expressed in transfected cells; host or cells: HEK293T (ATCC CRL-11268)
Briefly: Fluo-3 calcium imaging in TRPV1 transfected HEK293T cell line. The format is cell-based. To be noted: 100 μM probenecid. As for the experimental part:
as §1, §2, §3

Test [4] in a line: Hindpaw licking/flicking behaviors. It counts as in vivo, mice. To be noted: 10 minutes. Here is the method: Inflammatory sensitization by probenecid was investigated. Particularly, 50 μl of 1% carrageenan (Sigma Aldrich, USA) was injected to the right hind paws of mice 3 hours before the probenecid injection or 50 μl of CFA (complete Freund's adjuvant; Sigma Aldrich, USA) was injected 24 hours before the probenecid injection. Before the experiment, the mice were adapted for one hour to the experimental environment. […] of vehicle (saline containing 3% DMSO and 0.5% Tween 80) alone or […] of vehicle containing probenecid (20 mM) was injected to the right hind paws of the mice.
The time spent for the hindpaw licking/flicking behaviors in mice were measured according to the method of Bandell M, et al. (Neuron 41:849-857, 2004) and Moqrich A, et al. (Science 307:1468-1472, 2005), for 10 minutes. Statistical data were analyzed by two-tailed, unpaired Student's-t-test and the results were presented by mean ±S.E.M. (***p<0.001, **p<0.01, *p<0.05 and ND, p>0.05).

Test [5] relates to trigeminal neurons. Briefly: Whole-cell voltage-clamp recording in trigeminal neurons. The format is cell-based, ICR mice. To be noted: 100 μM probenecid.
Test [6] is described as follows: Oral aversion test. It counts as in vivo, ICR mice. Here is the method: Oral aversion test was confirmed according to the methods of Caterina M J, et al. (Science 288:306-313, 2000) and Kwan K Y, et al. (Neuron 50: 277-289, 2006). Particularly, adult ICR mice randomly selected and raised were allowed to drink water containing 0.125% saccharin (Sigma Aldrich, USA) only for three hours a day. Water and feed were provided for 4 days. Water and feed consumptions were measured everyday. On day 4, water containing 20 mM probenecid was provided for 3 hours. Statistical data were analyzed by two-tailed, unpaired Student's-t-test and the results were presented by mean ±S.E.M.

For test [7], the system named is trigeminal neurons. In words: Calcium imaging of cultured trigeminal neurons. The format is cell-based, ICR mice. To be noted: 100 μM probenecid. As for the experimental part: Trigeminal ganglia were dissected out of decapitated adult ICR mice in cold PBS and treated with 1.5 mg/ml of collagenase/dispase (Roche Diagnostics, USA) at 37° for 45 min, and then treated with 0.25% trypsin (Invitrogen, USA) for 15 min. The trigeminal neurons prepared thereby were then plated onto poly-L-lysinecoated coverslips in DMEM/F12 containing 10% FBS, 1% penicillin/streptomycin and 5 ng/ml of 2.5S NGF (Invitrogen, USA), followed by culture in a CO2 incubator for 48-72 hours.
Calcium imaging was performed with a confocal microscope (LSM5 Pascal, Carl Zeiss, Germany), and time-lapse images (excitation 488 nm/emission 514 nm) were collected every 3 seconds using Carl Zeiss ratio tool software (Carl Zeiss, Germany).
The trigeminal neurons prepared by the same manner as described in Example 2 were delayed-treated with 100 μM probenecid or 4 kinds of TRP activators: TRPM8 activator menthol 400 μM, TRPA1 activator cinnamaldehyde (MP Biomedicals, USA) 300 μM, TRPV1 activator capsaicin (Sigma-Aldrich, USA) 2 μM and TRPV1-3 activator 2-APB 300 μM.
The trigeminal neurons prepared by the same manner as described in Example 2 were treated with 300 μM 2-APB+100 μM probenecid, 300 μM 2-APB+2 μM capsaicin, 300 μM 2-APB+300 μM cinnamaldehyde+2 μM capsaicin, 300 μM 2-APB +2 μM capsaicin +100 μM probenecid, 300 μM 2-APB +400 μM menthol and 300 μM 2-APB, respectively.

T3 sequence (O35433 whole entry): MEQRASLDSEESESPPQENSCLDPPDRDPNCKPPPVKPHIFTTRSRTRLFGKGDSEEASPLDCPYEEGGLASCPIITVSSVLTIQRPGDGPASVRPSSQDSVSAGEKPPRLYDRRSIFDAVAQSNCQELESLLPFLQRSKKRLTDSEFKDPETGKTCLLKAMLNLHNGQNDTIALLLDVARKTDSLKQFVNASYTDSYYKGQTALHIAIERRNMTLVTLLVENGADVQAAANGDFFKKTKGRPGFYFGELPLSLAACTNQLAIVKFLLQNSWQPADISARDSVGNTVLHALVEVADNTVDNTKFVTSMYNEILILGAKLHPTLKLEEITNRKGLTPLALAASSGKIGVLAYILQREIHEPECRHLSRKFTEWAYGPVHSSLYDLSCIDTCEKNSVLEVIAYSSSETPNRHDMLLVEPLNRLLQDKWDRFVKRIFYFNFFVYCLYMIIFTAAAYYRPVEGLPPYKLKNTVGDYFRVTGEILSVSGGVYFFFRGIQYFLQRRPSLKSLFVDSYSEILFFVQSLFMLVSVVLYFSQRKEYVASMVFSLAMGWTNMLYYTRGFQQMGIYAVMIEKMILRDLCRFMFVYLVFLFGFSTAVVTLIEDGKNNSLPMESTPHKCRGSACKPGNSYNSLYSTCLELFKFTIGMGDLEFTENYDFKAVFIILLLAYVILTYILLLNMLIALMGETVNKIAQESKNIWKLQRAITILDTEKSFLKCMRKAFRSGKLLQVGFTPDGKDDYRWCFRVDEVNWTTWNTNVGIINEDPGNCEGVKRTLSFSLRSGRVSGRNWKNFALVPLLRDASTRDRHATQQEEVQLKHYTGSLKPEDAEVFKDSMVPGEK
T2 sequence (Q9ERZ8 whole entry): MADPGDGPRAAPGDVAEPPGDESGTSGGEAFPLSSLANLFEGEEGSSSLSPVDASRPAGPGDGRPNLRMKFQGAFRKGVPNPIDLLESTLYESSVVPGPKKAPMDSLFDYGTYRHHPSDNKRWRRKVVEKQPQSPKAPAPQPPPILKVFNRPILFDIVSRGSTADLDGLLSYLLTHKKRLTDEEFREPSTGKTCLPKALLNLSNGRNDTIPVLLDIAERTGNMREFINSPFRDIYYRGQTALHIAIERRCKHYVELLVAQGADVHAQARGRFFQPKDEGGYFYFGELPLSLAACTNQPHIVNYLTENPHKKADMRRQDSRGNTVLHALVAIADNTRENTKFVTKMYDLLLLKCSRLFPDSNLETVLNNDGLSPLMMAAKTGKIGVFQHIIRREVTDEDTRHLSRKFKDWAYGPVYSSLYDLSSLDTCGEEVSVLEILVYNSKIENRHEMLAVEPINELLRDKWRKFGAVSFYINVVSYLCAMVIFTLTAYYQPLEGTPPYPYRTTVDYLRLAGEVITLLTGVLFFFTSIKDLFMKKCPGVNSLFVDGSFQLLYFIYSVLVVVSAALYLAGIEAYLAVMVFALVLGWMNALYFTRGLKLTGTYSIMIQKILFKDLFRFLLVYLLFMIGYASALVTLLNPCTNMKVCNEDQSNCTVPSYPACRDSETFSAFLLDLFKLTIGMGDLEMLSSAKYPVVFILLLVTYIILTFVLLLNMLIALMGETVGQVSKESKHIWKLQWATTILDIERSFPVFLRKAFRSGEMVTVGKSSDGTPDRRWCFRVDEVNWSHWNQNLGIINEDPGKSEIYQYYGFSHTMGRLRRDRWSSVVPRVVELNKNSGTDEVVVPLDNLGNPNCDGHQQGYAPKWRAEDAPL
T1 sequence (Q8R4D5 whole entry): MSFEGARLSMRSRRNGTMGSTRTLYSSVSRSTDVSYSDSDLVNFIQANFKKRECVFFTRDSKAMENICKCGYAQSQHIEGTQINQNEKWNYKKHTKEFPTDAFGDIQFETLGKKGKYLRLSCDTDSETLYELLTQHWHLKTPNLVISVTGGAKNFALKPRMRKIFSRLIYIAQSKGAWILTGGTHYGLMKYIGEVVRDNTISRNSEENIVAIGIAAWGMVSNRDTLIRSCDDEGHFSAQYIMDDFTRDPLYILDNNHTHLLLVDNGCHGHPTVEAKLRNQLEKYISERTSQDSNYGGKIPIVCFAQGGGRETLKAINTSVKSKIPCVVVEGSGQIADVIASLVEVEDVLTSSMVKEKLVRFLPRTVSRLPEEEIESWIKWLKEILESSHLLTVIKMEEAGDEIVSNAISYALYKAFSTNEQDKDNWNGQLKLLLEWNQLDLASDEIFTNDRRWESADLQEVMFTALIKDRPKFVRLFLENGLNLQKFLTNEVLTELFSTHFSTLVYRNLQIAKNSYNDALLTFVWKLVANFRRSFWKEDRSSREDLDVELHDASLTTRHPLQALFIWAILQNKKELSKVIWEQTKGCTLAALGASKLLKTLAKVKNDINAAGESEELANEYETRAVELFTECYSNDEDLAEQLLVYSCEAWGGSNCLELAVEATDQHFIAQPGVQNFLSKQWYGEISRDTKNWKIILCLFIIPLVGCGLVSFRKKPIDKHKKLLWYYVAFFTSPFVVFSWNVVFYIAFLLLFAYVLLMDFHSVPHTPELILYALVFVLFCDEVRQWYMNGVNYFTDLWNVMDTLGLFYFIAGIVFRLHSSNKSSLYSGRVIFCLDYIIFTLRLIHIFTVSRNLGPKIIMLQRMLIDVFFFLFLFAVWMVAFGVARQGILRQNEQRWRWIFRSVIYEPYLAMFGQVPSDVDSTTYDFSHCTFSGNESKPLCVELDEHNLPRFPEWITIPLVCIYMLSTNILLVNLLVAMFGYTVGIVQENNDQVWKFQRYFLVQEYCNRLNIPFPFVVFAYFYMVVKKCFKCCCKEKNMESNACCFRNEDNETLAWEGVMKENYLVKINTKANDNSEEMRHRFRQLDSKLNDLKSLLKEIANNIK

Regarding `CCCN(CCC)S(=O)(=O)c1ccc(C(=O)O)cc1` [probenecid], the “TRPM8 activation (calcium imaging)” value in test [1] is listed as “only TRPV2 was activated; also recorded: not confirmed”. Moreover, in test [2], the “TRPV4 activation (calcium imaging)” value is “only TRPV2 was activated; also recorded: not confirmed”. In addition, the “TRPV1 activation (calcium imaging)” value in test [3] was “only TRPV2 was activated; also recorded: not confirmed”. The “hindpaw licking/flicking behavior in normal mice” value in test [4] (20 mM probenecid injected to the right hind paw) is “no significant changes in behavior”. For the same compound, the “hindpaw licking/flicking behavior in mice with inflammation induced by carrageenan” value in test [4] (1% carrageenan 3 hours before, 20 mM probenecid to the right hind paw) is reported as “significantly extended behavior time; also recorded: behavial changes were observed”. Moreover, the “hindpaw licking/flicking behavior in mice with inflammation induced by CFA” value in test [4] (CFA 24 hours before, 20 mM probenecid to the right hind paw) was “significantly extended behavior time; also recorded: behavial changes were observed”. The “probenecid induced currents in 2-APB-sensitive trigeminal neurons” value in test [5] is listed as “exhibited outward rectifying”. In test [6] (water containing 20 mM probenecid), the oral aversion entry was “did not induce oral aversion”. For the same compound, in test [6] (water containing 20 mM probenecid for 3 hours on day 4, n=5), the “water and feed consumption, treated versus not treated group” value is given as “no significant difference”. Also, the “calcium influx in a trigeminal neuron group” value in test [7] was “calcium influx induced”. Besides, in test [7] (2 μM capsaicin), the “neurons sensitive to probenecid among neurons responding to capsaicin” value was 5 out of 111 and the “share of capsaicin-sensitive neurons that responded to probenecid” value amounted to 3.5%. Further, the “response of 2-APB reactive neurons to probenecid” value in test [7] (2-APB 300 μM) is reported as “responded”. Moreover, in test [7] (capsaicin 2 μM, cinnamaldehyde 300 μM), the “response of major capsaicin-sensitive and all capsaicin/cinnamaldehyde-sensitive neuron groups to probenecid” value is “did not exhibit probenecid induced intracellular calcium influx”. Further, the “response of menthol-reactive TRPM8 positive neurons to probenecid” value in test [7] (menthol 400 μM) was “did not respond”.
